Laboratory results: patent publication US9499550B2 (BRISTOL-MYERS SQUIBB COMPANY, priority 2012, dated 2016)
Read-outs that look alike come from different tables or passages of the source.

How the values were obtained:
[1] = test system: HCV genotype 1a (H77 strain) replicon in HUH-7 cells; assay: HCV replicon luciferase reporter assay, genotype 1a; type: cell-based; details: Hepatitis C virus, Huh-7, 72 h, 3 days incubation, read-out: LE_1a (EC50, range)
Procedure, shortened: (§1)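 Replicon inhibition for both genotypes was measured as Renilla luciferase signal (EnduRen, 7.5 μM final, 2 h) after 3-day, 37° C exposure of replicon-bearing HUH-7 cells in 4% FCS DMEM, 0.5% DMSO. The 1b construct carries S1179I; the 1a H77 construct carries P1496L and S2204I. Twenty-point, 3-fold dilutions were fitted four-parametrically for EC50, and CC50 was taken from multiplexed Cell Titer-Blue.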

[2] = test system: HCV genotype 1b (Con1) replicon in HUH-7 cells; assay: HCV replicon luciferase reporter assay, genotype 1b; type: cell-based; details: Hepatitis C virus, Huh-7, 72 h, 3 days incubation, read-out: LE_1b (EC50, range)
Procedure, shortened: as §1

[3] = HCV genotype 1a replicon luciferase
[4] = HCV genotype 1b replicon luciferase
[5] = HCV genotype 1a replicon luciferase assay, range class
[6] = HCV genotype 1b replicon luciferase assay, range class

Row | SMILES | EC50 [1, 3] [nM] | EC50 [2, 4] [nM] | further results
1 | COc1ccc2c(O[C@@H]3C[C@H]4C(=O)N[C@]5(C(=O)NS(=O)(=O)C6(C)CC6)C[C@H]5/C=C\CC[C@@H](C)C[C@@H](C)[C@H](NC(=O)OC(C)(C)C(F)F)C(=O)N4C3)nc3c(c2c1)CCCO3 [Compound 6084, 1,1-difluoro-2-methylpropan-2-yl((2R,6S,7R,9R,13aS,14aR,16aS,Z)-2-((9-methoxy-2,3-dihydro-1H-pyrano[2,3-c]isoquinolin-6-yl)oxy)-7,9-dimethyl-14a-(((1-methylcyclopropyl)sulfonyl)carbamoyl)-5,16-dioxo-1,2,3,5,6,7,8,9,10,11,13a,14,14a,15,16,16a-hexadecahydrocyclopropa[e]pyrrolo[1,2-a][1,4]diazacyclopentadecin-6-yl)carbamate] | 0.1 to 0.5 | 0.51 to 1 | –
2 | COc1ccc2c(O[C@@H]3C[C@H]4C(=O)N[C@]5(C(=O)NS(=O)(=O)C6(CF)CC6)C[C@H]5/C=C\CC[C@@H](C)C[C@@H](C)[C@H](NC(=O)OC5COC5)C(=O)N4C3)nc(OC)cc2c1 [Compound 1129, oxetan-3-yl ((2R,6S,7R,9R,13aS,14aR,16aS,Z)-2-((3,6-dimethoxyisoquinolin-1-yl)oxy)-14a-(((1-(fluoromethyl)cyclopropyl)sulfonyl)carbamoyl)-7,9-dimethyl-5,16-dioxo-1,2,3,5,6,7,8,9,10,11,13a,14,14a,15,16,16a-hexadecahydrocyclopropa[e]pyrrolo[1,2-a][1,4]diazacyclopentadecin-6-yl)carbamate] | – | – | EC50 [1, 5]: < 5.46 nM; EC50 [2, 6]: < 5.46 nM
3 | CCCOc1cnc(O[C@@H]2C[C@H]3C(=O)N[C@]4(C(=O)NS(=O)(=O)C5(C)CC5)C[C@H]4/C=C\CC[C@H](C)C[C@@H](C)[C@H](NC(=O)O[C@@H]4C[C@@H]5C[C@@H]5C4)C(=O)N3C2)c2ccccc12 [Compound 5080, (1R,3r,5S)-bicyclo[3.1.0]hexan-3-yl((2R,6S,7R,9S,13aS,14aR,16aS,Z)-7,9-dimethyl-14a-(((1-methylcyclopropyl)sulfonyl)carbamoyl)-5,16-dioxo-2-((4-propoxyisoquinolin-1-yl)oxy)-1,2,3,5,6,7,8,9,10,11,13a,14,14a,15,16,16a-hexadecahydrocyclopropa[e]pyrrolo[1,2-a][1,4]diazacyclopentadecin-6-yl)carbamate] | > 87.4 | 4.82 to 103 | –
4 | COc1ccc2c(O[C@@H]3C[C@H]4C(=O)N[C@]5(C(=O)NS(=O)(=O)C6(C(F)F)CC6)C[C@H]5/C=C\CC[C@@H](C)C[C@@H](C)[C@H](NC(=O)OC(C)(C)C(F)(F)F)C(=O)N4C3)nc(OC)cc2c1 [Compound 1181] | – | – | EC50 ([1]; GETYPE1A, HCV genotype 1a replicon luciferase assay, range class): < 5.46 nM; EC50 ([2]; GETYPE1B, HCV genotype 1b replicon luciferase assay, range class): < 5.46 nM
5 | CC[C@@H]1C[C@H](C)CC/C=C\[C@@H]2C[C@@]2(C(=O)NS(=O)(=O)C2(C)CC2)NC(=O)[C@@H]2C[C@@H](Oc3nccc4c5c(ccc34)N(C)CCO5)CN2C(=O)[C@H]1NC(=O)OC(C)(C)C(C)(F)F [Compound 5328, 3,3-difluoro-2-methylbutan-2-yl((2R,6S,7R,9R,13aS,14aR,16aS,Z)-7-ethyl-9-methyl-2-((4-methyl-3,4-dihydro-2H-[1,4]oxazino[2,3-f]isoquinolin-7-yl)oxy)-14a-(((1-methylcyclopropyl)sulfonyl)carbamoyl)-5,16-dioxo-1,2,3,5,6,7,8,9,10,11,13a,14,14a,15,16,16a-hexadecahydrocyclopropa[e]pyrrolo[1,2-a][1,4]diazacyclopentadecin-6-yl)carbamate] | < 5.46 | < 5.46 | –
6 | CCOc1ccc2c(O[C@@H]3C[C@H]4C(=O)N[C@]5(C(=O)NS(=O)(=O)C6(CF)CC6)C[C@H]5/C=C\CC[C@@H](C)C[C@@H](C)[C@H](NC(=O)OC(C)(C)C(C)(F)F)C(=O)N4C3)nccc2c1 [Compound 5365, 3,3-difluoro-2-methylbutan-2-yl((2R,6S,7R,9R,13aS,14aR,16aS,Z)-2-((6-ethoxyisoquinolin-1-yl)oxy)-14a-(((1-(fluoromethyl)cyclopropyl)sulfonyl)carbamoyl)-7,9-dimethyl-5,16-dioxo-1,2,3,5,6,7,8,9,10,11,13a,14,14a,15,16,16a-hexadecahydrocyclopropa[e]pyrrolo[1,2-a][1,4]diazacyclopentadecin-6-yl)carbamate] | 1.01 to 5 | 0.51 to 1 | –
7 | CCC(CC)(OC(=O)N[C@@H]1C(=O)N2C[C@H](Oc3nccc4c5c(ccc34)OCCO5)C[C@H]2C(=O)N[C@]2(C(=O)NS(=O)(=O)C3CC3)C[C@H]2/C=C\CC[C@@H](C)C[C@H]1C)C(F)(F)F [Compound 5262, 3-(trifluoromethyl)pentan-3-yl ((2R,6S,7R,9R,13aS,14aR,16aS,Z)-14a-((cyclopropylsulfonyl)carbamoyl)-2-((2,3-dihydro-[1,4]dioxino[2,3-f]isoquinolin-7-yl)oxy)-7,9-dimethyl-5,16-dioxo-1,2,3,5,6,7,8,9,10,11,13a,14,14a,15,16,16a-hexadecahydrocyclopropa[e]pyrrolo[1,2-a][1,4]diazacyclopentadecin-6-yl)carbamate] | < 5.46 | < 5.46 | –
8 | COc1cnc(O[C@@H]2C[C@H]3C(=O)N[C@]4(C(=O)NS(=O)(=O)C5(CF)CC5)C[C@H]4CCCC[C@H](C)C[C@@H](C)[C@H](NC(=O)OC(C)(C)C(C)(F)F)C(=O)N3C2)c2ccccc12 [Compound 5118, 3,3-difluoro-2-methylbutan-2-yl ((2R,6S,7R,9S,13 aR,14aR,16aS)-14a-(((1-(fluoromethyl)cyclopropyl)sulfonyl)carbamoyl)-2-((4-methoxyisoquinolin-1-yl)oxy)-7,9-dimethyl-5,16-dioxooctadecahydrocyclopropa[e]pyrrolo[1,2-a][1,4]diazacyclopentadecin-6-yl)carbamate] | 4.82 to 103 | 4.82 to 103 | –
9 | COc1ccc2c(O[C@@H]3C[C@H]4C(=O)N[C@]5(C(=O)NS(=O)(=O)C6CC6)C[C@H]5/C=C\CC[C@@H](C)C[C@@H](C)[C@H](NC(=O)OC(C)(C)C)C(=O)N4C3)nccc2c1F [Compound 3148, tert-butyl ((2R,6S,7R,9R,13aS,14aR,16aS,Z)-14a-((cyclopropylsulfonyl)carbamoyl)-2-((5-fluoro-6-methoxyisoquinolin-1-yl)oxy)-7,9-dimethyl-5,16-dioxo-1,2,3,5,6,7,8,9,10,11,13a,14,14a,15,16,16a-hexadecahydrocyclopropa[e]pyrrolo[1,2-a][1,4]diazacyclopentadecin-6-yl)carbamate] | – | – | EC50 [1, 5]: < 5.46 nM; EC50 [2, 6]: < 5.46 nM
10 | CC[C@@H]1C[C@@H](C)CC/C=C\[C@@H]2C[C@@]2(C(=O)NS(=O)(=O)C2(C)CC2)NC(=O)[C@@H]2C[C@@H](Oc3nc4c(c5ccccc35)OCCC4)CN2C(=O)[C@H]1NC(=O)OC(C)(C)C [Compound 6023, tert-butyl ((2R,6S,7R,9S,13aS,14aR,16aS,Z)-2-((3,4-dihydro-2H-pyrano[3,2-c]isoquinolin-6-yl)oxy)-7-ethyl-9-methyl-14a-(((1-methylcyclopropyl)sulfonyl)carbamoyl)-5,16-dioxo-1,2,3,5,6,7,8,9,10,11,13a,14,14a,15,16,16a-hexadecahydrocyclopropa[e]pyrrolo[1,2-a][1,4]diazacyclopentadecin-6-yl)carbamate] | 4.82 to 103 | 4.82 to 103 | –
